According to patent publication US10336734B2, “Inhibitors of ACK1/TNK2 tyrosine kinase” (H. LEE MOFFITT CANCER CENTER AND RESEARCH INSTITUTE, INC., priority 2015, dated 2019):

Columns and labels:
LNCaP = test: Cell viability/proliferation of PC cell lines, LNCaP; assay type: cell-based; details: 96 hr, read-out: IC50, suppression of proliferation
From the text: (§1) FIG. 7A through 7F. (R)-9bMS overcome enzalutamide-resistance of CRPCs. […] Data represent mean±s.e.m. (n=3) from one of three independent experiments. […] Data represent mean±s.e.m. (n=3) from one of three independent experiments. […] Data represent mean±standard error of the mean (s.e.m.) (n=3) from one of three independent experiments.*p<0.05. […] Cell cycle analysis of prostate cell lines treated with (R)-9bMS (24 hr).
(§2) To investigate the anti-tumor activity of ACK1 inhibitor, we first analyzed the ability (R)-9bMS to suppress proliferation of PC cell lines.

C4-2B = test: Cell viability/proliferation of PC cell lines, C4-2B; assay type: cell-based; details: 96 hr, read-out: IC50, suppression of proliferation
From the text: as §1, §2

VCaP = test: Cell viability/proliferation of PC cell lines, VCaP; assay type: cell-based; details: 96 hr, read-out: IC50, suppression of proliferation
From the text: as §1, §2

AR-V7 = AR-V7 mRNA (qRT-PCR) and variant protein (immunoblot) in PC cells; assay type: cell-based; details: VCaP 3.5 μM, 16 hr; VCaP and LAPC4 immunoblot
From the text: FIG. 1A through 1F. Inhibition of ACK1 kinase activity by (R)-9bMS (DZ1-067 mesylate salt) suppresses AR and AR-V7 expression. […] Data represent mean±s.e.m. (n=3) from one of three independent experiments. *p<0.05. FIG. 1B and FIG. 1C show immunoblot analysis of androgen-deprived VCaP and LAPC4 cells treated with (R)-9bMS. […] FIG. 1E and FIG. 1F show qRT-PCR analysis of AR and PSA in PC3 cells transfected with caACK or kdACK constructs. Data represent mean±s.e.m. (n=3) from one of three independent experiments. **p<0.01.
We assessed AR-V7 mRNA levels upon treatment with (R)-9bMS (DZ1-067 mesylate salt).

[1] = test system: histone H4 Y88-phosphorylation; test: Immunoblot of H4 Y88-phosphorylation in ligand-treated PC cells; assay type: cell-based; details: serum and androgen starved PC cells, ligand activated; 5 μM (DHT 10 nM)
Procedure: FIG. 2A through 2C. ACK1 inhibitor (R)-9bMS suppresses epigenetic modification of histone H4 at tyrosine 88.
To assess endogenous H4-phosphorylation, serum and androgen starved PC cells were treated with ligands to activate ACK1. It led to robust H4 Y88-phosphorylation, suppressed upon (R)-9bMS treatment (FIG. 2A). […] Moreover, H4 Y88-phosphorylation was also detected in human CRPCs using mass spectrometry, which was validated by immunoblotting (FIG. 3A-3C).

[2] = test system: enzalutamide-resistant C4-2B cell line; test: Cell viability and AR expression, enzalutamide-resistant C4-2B cells; assay type: cell-based
From the text: as §1, with “7F.” for “7F. (R)-9bMS overcome enzalutamide-resistance of CRPCs.”

LAPC4 = test: Cell viability/proliferation of PC cell lines, LAPC4; assay type: cell-based; details: LAPC4, 96 hr; read-out: IC50, suppression of proliferation
From the text: as §1, §2

C4-2B xenograft tumors = test: C4-2B CRPC xenograft in castrated SCID mice; assay type: in vivo
Procedure: FIG. 8A through 8F. (R)-9bMS mitigates CRPC tumor growth. […] Once formed palpable tumors, mice were injected with vehicle (10% DMSO in PBS) or (R)-9bMS (50 mg/kg of body) for 6 days a week for five weeks (n=9 mice for each treatment). Tumor volumes were measured. Data represent mean±s.e.m. […] Data represent mean±standard error of the mean (s.e.m.) (n=3) from one of three independent experiments. **p<0.01.
To investigate the effect of (R)-9bMS on CRPC xenograft tumor growth, C4-2B cells were implanted in castrated SCID mice.

[3] = test system: pY88-H4 epigenetic marks upstream of AR gene; test: ChIP-qPCR at AREM1-3 sites in C4-2B cells; assay type: cell-based
From the text: FIG. 5A through 5J. AR transcription is regulated by epigenetic modification of histone H4 at tyrosine 88 is sensitized byc(R)-9bMS. FIG. 5A through 5D show ChIP with pY88-H4 antibodies, followed by qPCR using primers corresponding to AREM1-3 and control (gene desert) sites of C4-2B cells treated with (R)-9bMS. Data represent mean±s.e.m. (n=3) from one of three independent experiments. **p<0.01. […] Data represent mean±s.e.m. (n=3) from one of three independent experiments. *p<0.05, **p<0.01. FIGS. 5F and 5G show ChIP with pY88-H4 antibodies, followed by qPCR using primers corresponding to AREM2 and AREM1 site of C4-2B cells transfected with ACK1, AR and control siRNA. Data represent mean±s.e.m. (n=3) from one of three independent experiments. *p<0.05, **p<0.01. […] Data represent mean±s.e.m. (n=3) from one of three independent experiments. *p<0.05. FIGS. 5I and 5J show qRT-PCR analysis of AR and PSA in LAPC4 cells transfected with FLAG-tagged H4 or Y88F mutant H4 expressing constructs. Data represent mean±s.e.m. (n=3) from one of three independent experiments.*p<0.05, **p<0.01.
FIG. 6A through 6F. Recruitment of the MLL2/WDR5 complex and deposition of H3K4me3 epigenetic marks upstream of the AR gen can be erased by (R)-9bMS. […]

[4] = test system: LNCaP-caAck xenograft tumors; test: LNCaP-caAck xenograft in castrated SCID mice; assay type: in vivo; details: 50 mg/kg, 6 days a week for four weeks
Procedure: FIG. 9. ACK1 inhibitor (R)-9bMS suppresses xenograft tumor growth in castrated mice. Male SCID mice were castrated and injected with LNCaP-caAck cells. Once mice formed palpable tumors, mice were injected with vehicle (10% DMSO in PBS) or (R)-9bMS (50 mg/kg of body) for 6 days a week for four weeks (n=7 mice for each treatment). Tumor volumes were measured.

PC cells = test: Cell cycle and apoptosis of PC cells; assay type: cell-based
From the text: as §1, §2

[5] = 50 mg/kg, 6 days a week for five weeks

IC50 (LNCaP): 1.8 µM | IC50 (VCaP): 0.45 µM | Organ histology (H&E) (C4-2B xenograft tumors; 50 mg/kg): histologically normal
Compound: CN1CCN(c2ccc(Nc3ncc(Cl)c(NC[C@H]4CCCO4)n3)cc2)CC1 [(R)-9bMS]
IC50 (C4-2B): 0.4 µM | AR-V7 mRNA and variant protein levels (AR-V7): significantly reduced | H4 Y88-phosphorylation [1]: suppressed | Sensitivity of enzalutamide-resistant cells ([2]; enzalutamide-resistant C4-2B cells, 96 hr): retained sensitivity | AR expression in enzalutamide-resistant cells ([2]; immunoblot): able to suppress AR expression | IC50 (LAPC4): 0.75 µM | body weights (C4-2B xenograft tumors; 50 mg/kg): no statistical difference | CRPC tumor growth (C4-2B xenograft tumors; [5]): significant decrease | tumor weight (C4-2B xenograft tumors; [5]): significant decrease | AR, PSA & TMPRSS2 mRNAs levels in tumors (C4-2B xenograft tumors; qRT-PCR of xenograft tumors): significant reduction | pY88-H4 marks at AREM1-3 sites ([3]; ChIP real time PCR): erased | WDR5, MLL2, H3K4me3 methyl marks and RNA Pol II at AREM1-3 sites ([3]; absence of androgen): significantly reduced | Xenograft tumor growth [4]: displayed sensitivity | Cell cycle (PC cells; 24 hr): arrest PC cells in G2 phase | Apoptosis (PC cells; C4-2B cells): inducing apoptosis
